According to patent publication US20050148570A1, “Novel substituted alkane compounds and uses thereof” (priority 2001, published 2005):
In brackets after ≈: the same amount, converted by molar mass.

Legend:
M. smegimatis = assay: MIC, broth dilution method; type: cell-based; settings: for MIC: read-out: MIC Anti-Bacterial Activity
Protocol: (§1) Antibacterial activity can be determined by several standard methods well known by those skilled in the art, including disc diffusions methods, broth dilution minimal inhibitory concentration (MIC) methods, etc., including the detailed method outlined below. Cultures of bacteria are initially brought up from the freezer by streaking a loopful onto agar plates under the appropriate conditions. For instance stocks are streaked onto chocolate agar and then incubated for 18 hours at 35-37° C. in a 5% CO2 incubator. Five to 10 colonies are picked from the chocolate agar plate for subculture to Brain-Heart Infusion (BHI) broth or Mueller Hinton broth or BHI containing 4% serum and incubated under the appropriate conditions. The ability of the test compound to act as an antimicrobial is determined by the ability to inhibit bacterial, algae, or fungal growth in vitro. The optical density of the culture of organisms in the presence of an active compound is compared to the optical density of the same organism untreated. The activity of the compounds is described as either negative or the lowest concentration inhibiting growth.

H. influenzae = assay: MIC, broth dilution method; type: cell-based; settings: for MIC: Haemophilus influenzae, read-out: MIC Anti-Bacterial Activity
Protocol: as §1

E. faecalis = assay: MIC, broth dilution method; type: cell-based; settings: for MIC: Enterococcus faecalis, read-out: MIC Anti-Bacterial Activity
Protocol: as §1

S. epidermidis = assay: MIC, broth dilution method; type: cell-based; settings: for MIC: Staphylococcus epidermidis, read-out: MIC Anti-Bacterial Activity
Protocol: as §1

S. pneumoniae = assay: MIC, broth dilution method; type: cell-based; settings: for MIC: Streptococcus pneumoniae, read-out: MIC Anti-Bacterial Activity
Protocol: as §1

S. pyogenes = assay: MIC, broth dilution method; type: cell-based; settings: for MIC: Streptococcus pyogenes, read-out: MIC Anti-Bacterial Activity
Protocol: as §1

C. diphtheriae = assay: MIC, broth dilution method; type: cell-based; settings: for MIC: Corynebacterium diphtheriae, read-out: MIC Anti-Bacterial Activity
Protocol: as §1

S. aureus = assay: MIC, broth dilution method; type: cell-based; settings: for MIC: Staphylococcus aureus, read-out: Antibacterial Activity against S. aureus MIC
Protocol: as §1

M. catarrhalis = assay: MIC, broth dilution method; type: cell-based; settings: for MIC: Moraxella catarrhalis, read-out: MIC Anti-Bacterial Activity
Protocol: as §1

H. pylori = assay: MIC, broth dilution method; type: cell-based
Protocol: as §1

[1] = system: methicillin-resistant Staphylococcus aureus; assay: Wound healing model (FIG. 2); type: in vivo; settings: mice, composition applied topically twice daily, sampled 72 hours post-infection
Protocol: (§2) FIG. 2. Efficacy of a composition comprising the compound of Example 9 in the wound healing model. A defined inoculum of approximately 10^5 CFU of methicillin-resistant Staphylococcus aureus in 20 μl culture medium was pipetted into a wound approximately 1 cm^2 created by removal of the epidermis from the shaved backs of mice. After 24 hours, the composition comprising Example 9, placebo control or positive control ointment was applied twice daily. Approximately, seventy two hours post-infection, the wound was sampled and appropriate dilutions plated on nutritive agars for determination of microbial burden. The number of colony forming units (CFU) of methicillin-resistant Staphylococcus aureus per wound is shown.
(§3) The wound healing model, using methods generally known by those skilled in the art, is used to measure the efficacy of topically applied compounds in suitable vehicles against any bacteria, for example, Staphylococcus epidermis, Staphylococcus aureus, Streptococcus pyrogenes, Haemophilus influenzae, or mixtures thereof. By removing several epidermal layers by surgical procedure, a superficial wound of approximately 1 cm^2 was created. About 10^5cfu/20 ul of culture medium of any bacteria, for example, S aureus, was applied to the wound. […]

[2] = system: methicillin-sensitive Staphylococcus aureus; assay: Wound healing model (FIG. 1); type: in vivo; settings: methicillin-susceptible Staphylococcus aureus; mice; composition applied topically twice daily; sampled 72 hours post-infection
Protocol: as §2, with “1.” for “2.”, “methicillin-sensitive” for “methicillin-resistant”
as §3

[3] = system: Staphylococcus epidermidis; assay: Wound healing model (FIG. 3); type: in vivo; settings: mice, composition applied topically twice daily, sampled 72 hours post-infection
Protocol: as §2, with “3.” for “2.”, “methicillin-sensitive” for “methicillin-resistant”, “epidermis” for “aureus”
as §3

| melting point [°C] | MIC (M. smegimatis) [µg/mL] | MIC (H. influenzae) [µg/mL] | MIC (E. faecalis) [µg/mL] | MIC (S. epidermidis) [µg/mL] | MIC (S. pneumoniae) [µg/mL] | MIC (S. pyogenes) [µg/mL] | MIC (C. diphtheriae) [µg/mL] | MIC (S. aureus) [µg/mL] | MIC (M. catarrhalis) [µg/mL] | Structure (SMILES) | further results |
| --- | --- | --- | --- | --- | --- | --- | --- | --- | --- | --- | --- |
| 130 to 132 | 3 (≈ 9.66 µM) | 1 (≈ 3.22 µM) | 3 (≈ 9.66 µM) | 2 (≈ 6.44 µM) | 6 (≈ 19.3 µM) | 6 (≈ 19.3 µM) | 2 (≈ 6.44 µM) | 1 (≈ 3.22 µM) | 2 (≈ 6.44 µM) | CCCC1CC(c2ccc(O)c(C)c2)(c2ccc(O)c(C)c2)C1 [Example 1, 1,1-Bis(4-hydroxy-3-methylphenyl)-3-n-propyl-cyclobutane] |  |
| 135 to 137 | 2 (≈ 6.16 µM) | 1 (≈ 3.08 µM) | 2 (≈ 6.16 µM) | 1 (≈ 3.08 µM) | 6 (≈ 18.5 µM) | 6 (≈ 18.5 µM) | 1 (≈ 3.08 µM) | 1 (≈ 3.08 µM) | 1 (≈ 3.08 µM) | CCCCC1CC(c2ccc(O)c(C)c2)(c2ccc(O)c(C)c2)C1 [Example 2, 1,1-Bis(4-hydroxy-3-methylphenyl)-3-n-butyl-cyclobutane] | MIC (H. pylori; Helicobacter pylori, read-out: MIC Anti-Bacterial Activity): 16 µg/mL (≈ 49.3 µM) |
| 103 to 105 | 1 (≈ 2.85 µM) | 3 (≈ 8.54 µM) | 2 (≈ 5.69 µM) | 1 (≈ 2.85 µM) | 3 (≈ 8.54 µM) | 13 (≈ 37 µM) | 1 (≈ 2.85 µM) | 1 (≈ 2.85 µM) | 1 (≈ 2.85 µM) | CCCC1CC(c2ccc(O)c(Cl)c2)(c2ccc(O)c(Cl)c2)C1 [Example 5, 1,1-Bis(4-hydroxy-3-chloro-phenyl)-3-n-propyl-cyclobutane] |  |
|  |  |  |  |  |  |  |  |  |  | CCCCC1CC(c2ccc(O)c(Cl)c2)(c2ccc(O)c(Cl)c2)C1 [Example 8, 1,1-Bis(4-hydroxy-3-chloro-phenyl)-3-n-butyl-yclobutane] | MIC Anti-Bacterial Activity (M. smegimatis): 1 µg/mL (≈ 2.74 µM); MIC Anti-Bacterial Activity (H. influenzae): 3 µg/mL (≈ 8.21 µM); MIC Anti-Bacterial Activity (E. faecalis): 1 µg/mL (≈ 2.74 µM); MIC Anti-Bacterial Activity (S. epidermidis): 1 µg/mL (≈ 2.74 µM); MIC Anti-Bacterial Activity (S. pneumoniae): 3 µg/mL (≈ 8.21 µM); MIC Anti-Bacterial Activity (S. pyogenes): 13 µg/mL (≈ 35.6 µM); MIC Anti-Bacterial Activity (H. pylori): 31 µg/mL (≈ 84.9 µM); MIC Anti-Bacterial Activity (C. diphtheriae): 1 µg/mL (≈ 2.74 µM); Antibacterial Activity against S. aureus MIC (S. aureus; S. aureus): 0.5 µg/mL; MIC Anti-Bacterial Activity (M. catarrhalis): 1 µg/mL (≈ 2.74 µM) |

| Structure (SMILES) | melting point [°C] | MIC (M. smegimatis) [µg/mL] | MIC (H. influenzae) [µg/mL] | MIC (E. faecalis) [µg/mL] | MIC (S. epidermidis) [µg/mL] | MIC (S. pneumoniae) [µg/mL] | MIC (S. pyogenes) [µg/mL] | MIC (C. diphtheriae) [µg/mL] | MIC (S. aureus) [µg/mL] | MIC (M. catarrhalis) [µg/mL] | further results |
| --- | --- | --- | --- | --- | --- | --- | --- | --- | --- | --- | --- |
| CCCCCC(C)(c1ccc(O)c(C)c1)c1ccc(O)c(C)c1 [Example 9, 2,2-Bis(4-hydroxy-3-methylphenyl)heptane] |  | 2 (≈ 6.4 µM) |  |  |  |  |  |  | 1 (≈ 3.2 µM) |  | reducing the population levels of pathogenic bacteria in wound [1]: efficacious; reducing the population levels of pathogenic bacteria in wound [2]: efficacious; reducing the population levels of pathogenic bacteria in wound [3]: efficacious |
